Laboratory results published in patent US6054459A, “Substituted 1,2,3,4-tetrahydro-5-nitro-pyrimidines” (priority 1994, dated 2000).

system: Plutella maculipennis; assay: Plutella test; format: in vivo, Plutella maculipennis (diamond-back moth); conditions: 72 h, active compound concentration 0.01 %, after 3d, read-out: Degree of destruction in % after 3d
Description: Solvent: 7 parts by weight of dimethylformamide
Emulsifier: 1 part by weight of alkylaryl polyglycol ether
To produce a suitable preparation of active compound, 1 part by weight of active compound is mixed with the stated amount of solvent and the stated amount of emulsifier, and the concentrate is diluted with water to the desired concentration.
Cabbage leaves (Brassica oleracea) are treated by being dipped into the preparation of active compound of the desired concentration and are infested with caterpillars of the diamond-back moth (Plutella maculipennis) while the leaves are still moist.
After the desired period of time, the destruction in % is determined. 100% means that all the caterpillars have been killed; 0% means that none of the caterpillars have been killed.

Compound | mortality at 0.01 % [%]
CC(C)(C)CNC(=O)OCCCN1CC([N+](=O)[O-])=C2N(Cc3ccc(Cl)nc3)CCN2C1 | 100
O=C(NCCN1CC([N+](=O)[O-])=C2N(Cc3ccc(Cl)nc3)CCN2C1)OCc1ccccc1 [drawing 127] | 100
O=C(NCCCCCCCl)OCCCN1CC([N+](=O)[O-])=C2N(Cc3ccc(Cl)nc3)CCN2C1 [drawing 132] | 100

same assay, conditions: 72 h, active compound concentration 0.1 %, after 3d, read-out: Degree of destruction in % after 3d

Compound | mortality at 0.1 % [%]
CC(C)(C)CNC(=O)OCCCN1CC([N+](=O)[O-])=C2N(Cc3ccc(Cl)nc3)CCN2C1 | 100
O=C(NCCN1CC([N+](=O)[O-])=C2N(Cc3ccc(Cl)nc3)CCN2C1)OCc1ccccc1 [drawing 127] | 100
O=C(NCCCCCCCl)OCCCN1CC([N+](=O)[O-])=C2N(Cc3ccc(Cl)nc3)CCN2C1 [drawing 132] | 100

same assay, conditions: 72 h, read-out: Degree of destruction in % after 3d

Compound | mortality at 0.01 % [%] | mortality at 0.1 % [%]
CC(=O)OCCN1CC([N+](=O)[O-])=C2N(Cc3ccc(Cl)nc3)CCN2C1 | 100 | 100
CC(C)(C)OC(=O)NCCN1CC([N+](=O)[O-])=C2N(Cc3ccc(Cl)nc3)CCN2C1 [drawing 123] | 100 | 100
CCOC(=O)NCCN1CC([N+](=O)[O-])=C2N(Cc3ccc(Cl)nc3)CCN2C1 [drawing 124] | 100 | 100
CC(=O)NCCN1CC([N+](=O)[O-])=C2N(Cc3ccc(Cl)nc3)CCN2C1 [drawing 125] | 100 | 100
CCOC(=O)NCCCN1CC([N+](=O)[O-])=C2N(Cc3ccc(Cl)nc3)CCN2C1 [drawing 126] | 100 | 100
CNC(=O)OCCCN1CC([N+](=O)[O-])=C2N(Cc3ccc(Cl)nc3)CCN2C1 [drawing 128] | 100 | 100
CC(=O)OCCCN1CC([N+](=O)[O-])=C2N(Cc3ccc(Cl)nc3)CCN2C1 [drawing 129] | 100 | 100

system: not listed separately; assay: lg P (physical data); conditions: not given

logP | Compound
1.11 | COCCNC(=O)OCCCN1CC([N+](=O)[O-])=C2N(Cc3ccc(Cl)nc3)CCN2C1 [Example 31]
1.26 | CCOCCOCCNC(=O)OCCN1CC([N+](=O)[O-])=C2N(Cc3ccc(Cl)nc3)CCN2C1 [Example 32]
2.26 | CC(COC(C)(C)C)NC(=O)OCCN1CC([N+](=O)[O-])=C2N(Cc3ccc(Cl)nc3)CCN2C1 (centres unmarked) [Example 33]
1.28 | COCCOCCNC(=O)OCCCCCN1CC([N+](=O)[O-])=C2N(Cc3ccc(Cl)nc3)CCN2C1 [Example 34]
1.44 | CCOCCOCCNC(=O)OCCCCCN1CC([N+](=O)[O-])=C2N(Cc3ccc(Cl)nc3)CCN2C1 [Example 35]
1.24 | COCCNC(=O)OCCCCCN1CC([N+](=O)[O-])=C2N(Cc3ccc(Cl)nc3)CCN2C1 [Example 36]
2.29 | O=C(Nc1ccc(S(=O)(=O)C(F)(F)F)cc1)OCCCCCN1CC([N+](=O)[O-])=C2N(Cc3ccc(Cl)nc3)CCN2C1 [Example 37]
1.79 | O=C(Nc1ccccc1)OCCCCCN1CC([N+](=O)[O-])=C2N(Cc3ccc(Cl)nc3)CCN2C1 [Example 38]
0.82 | CC(=O)OCCNC(=O)OCCCCCN1CC([N+](=O)[O-])=C2N(Cc3ccc(Cl)nc3)CCN2C1 [Example 39]
1.81 | CC(C)(C)C(=O)OCCNC(=O)OCCCCCN1CC([N+](=O)[O-])=C2N(Cc3ccc(Cl)nc3)CCN2C1 [Example 40]
2.09 | O=C(Nc1ccc(Cl)cc1)OCCCCCN1CC([N+](=O)[O-])=C2N(Cc3ccc(Cl)nc3)CCN2C1 [Example 41]
2.01 | CC(C)(C)CNC(=O)OCCCCCN1CC([N+](=O)[O-])=C2N(Cc3ccc(Cl)nc3)CCN2C1 [Example 43]
2.74 | O=C(Nc1ccc(SC(F)(F)F)cc1)OCCCCCN1CC([N+](=O)[O-])=C2N(Cc3ccc(Cl)nc3)CCN2C1 [Example 44]
1.56 | COC(C)(C)CNC(=O)OCCCCCN1CC([N+](=O)[O-])=C2N(Cc3ccc(Cl)nc3)CCN2C1 [Example 45]
1.47 | COCCOCCNC(=O)OCCCCCCN1CC([N+](=O)[O-])=C2N(Cc3ccc(Cl)nc3)CCN2C1 [Example 46]
1.63 | CCOCCOCCNC(=O)OCCCCCCN1CC([N+](=O)[O-])=C2N(Cc3ccc(Cl)nc3)CCN2C1 [Example 47]
1.44 | COCCNC(=O)OCCCCCCN1CC([N+](=O)[O-])=C2N(Cc3ccc(Cl)nc3)CCN2C1 [Example 48]
2.51 | O=C(Nc1ccc(S(=O)(=O)C(F)(F)F)cc1)OCCCCCCN1CC([N+](=O)[O-])=C2N(Cc3ccc(Cl)nc3)CCN2C1 [Example 49]
2.01 | O=C(Nc1ccccc1)OCCCCCCN1CC([N+](=O)[O-])=C2N(Cc3ccc(Cl)nc3)CCN2C1 [Example 50]
1.47 | CC(=O)OCCNC(=O)OCCCCCCN1CC([N+](=O)[O-])=C2N(Cc3ccc(Cl)nc3)CCN2C1 [Example 51]

logP | Compound
1.98 | CC(C)(C)C(=O)OCCNC(=O)OCCCCCCN1CC([N+](=O)[O-])=C2N(Cc3ccc(Cl)nc3)CCN2C1 [Example 52]
2.27 | O=C(Nc1ccc(Cl)cc1)OCCCCCCN1CC([N+](=O)[O-])=C2N(Cc3ccc(Cl)nc3)CCN2C1 [Example 53]
2.59 | O=C(Nc1ccc(Cl)c(Cl)c1)OCCCCCCN1CC([N+](=O)[O-])=C2N(Cc3ccc(Cl)nc3)CCN2C1 [Example 54]
2.05 | CC(C)(C)CNC(=O)OCCCCCCN1CC([N+](=O)[O-])=C2N(Cc3ccc(Cl)nc3)CCN2C1 [Example 55]
2.71 | O=C(Nc1ccc(SC(F)(F)F)cc1)OCCCCCCN1CC([N+](=O)[O-])=C2N(Cc3ccc(Cl)nc3)CCN2C1 [Example 56]
1.6 | COC(C)(C)CNC(=O)OCCCCCCN1CC([N+](=O)[O-])=C2N(Cc3ccc(Cl)nc3)CCN2C1 [Example 57]
1.2 | COCCOCCNC(=O)OCCCCN1CC([N+](=O)[O-])=C2N(Cc3ccc(Cl)nc3)CCN2C1 [Example 58]
1.36 | CCOCCOCCNC(=O)OCCCCN1CC([N+](=O)[O-])=C2N(Cc3ccc(Cl)nc3)CCN2C1 [Example 59]
2.22 | O=C(Nc1ccc(S(=O)(=O)C(F)(F)F)cc1)OCCCCN1CC([N+](=O)[O-])=C2N(Cc3ccc(Cl)nc3)CCN2C1 [Example 60]
1.72 | O=C(Nc1ccccc1)OCCCCN1CC([N+](=O)[O-])=C2N(Cc3ccc(Cl)nc3)CCN2C1 [Example 61]
1.22 | CC(=O)OCCNC(=O)OCCCCN1CC([N+](=O)[O-])=C2N(Cc3ccc(Cl)nc3)CCN2C1 [Example 62]
1.73 | CC(C)(C)C(=O)OCCNC(=O)OCCCCN1CC([N+](=O)[O-])=C2N(Cc3ccc(Cl)nc3)CCN2C1 [Example 63]
1.53 | O=C(Nc1ccc(Cl)c(Cl)c1)OCCCCN1CC([N+](=O)[O-])=C2N(Cc3ccc(Cl)nc3)CCN2C1 [Example 65]
1.75 | CC(C)(C)CNC(=O)OCCCCN1CC([N+](=O)[O-])=C2N(Cc3ccc(Cl)nc3)CCN2C1 [Example 66]
1.63 | CCCCNC(=O)OC(C)CN1CC([N+](=O)[O-])=C2N(Cc3ccc(Cl)nc3)CCN2C1 (centres unmarked) [Example 75]
1.73 | CCCCNC(=O)OCCCCCN1CC([N+](=O)[O-])=C2N(Cc3cnc(Cl)s3)CCN2C1 [Example 78]
1.9 | CC(C)(C)NC(=O)OCCCCCCN1CC([N+](=O)[O-])=C2N(Cc3cnc(Cl)s3)CCN2C1 [Example 79]
0.94 | O=[N+]([O-])C1=C2N(Cc3cnc(Cl)s3)CCN2CN(CCCCCCO)C1 [II-15]
0.71 | O=[N+]([O-])C1=C2N(Cc3cnc(Cl)s3)CCN2CN(CCCCCO)C1 [II-16]
